By IC50 is commonly meant the midpoint of a concentration-inhibition curve.

The target in this assay is T1, recombinant full-length human prolyl endopeptidase (PREP) (Homo sapiens, UniProt P48147).
T1 construct: To recombinant full-length human prolyl endopeptidase (PREP, R&D-Systems, 4308-SE); purchased R&D-Systems 4308-SE
T1 sequence (P48147 1-710): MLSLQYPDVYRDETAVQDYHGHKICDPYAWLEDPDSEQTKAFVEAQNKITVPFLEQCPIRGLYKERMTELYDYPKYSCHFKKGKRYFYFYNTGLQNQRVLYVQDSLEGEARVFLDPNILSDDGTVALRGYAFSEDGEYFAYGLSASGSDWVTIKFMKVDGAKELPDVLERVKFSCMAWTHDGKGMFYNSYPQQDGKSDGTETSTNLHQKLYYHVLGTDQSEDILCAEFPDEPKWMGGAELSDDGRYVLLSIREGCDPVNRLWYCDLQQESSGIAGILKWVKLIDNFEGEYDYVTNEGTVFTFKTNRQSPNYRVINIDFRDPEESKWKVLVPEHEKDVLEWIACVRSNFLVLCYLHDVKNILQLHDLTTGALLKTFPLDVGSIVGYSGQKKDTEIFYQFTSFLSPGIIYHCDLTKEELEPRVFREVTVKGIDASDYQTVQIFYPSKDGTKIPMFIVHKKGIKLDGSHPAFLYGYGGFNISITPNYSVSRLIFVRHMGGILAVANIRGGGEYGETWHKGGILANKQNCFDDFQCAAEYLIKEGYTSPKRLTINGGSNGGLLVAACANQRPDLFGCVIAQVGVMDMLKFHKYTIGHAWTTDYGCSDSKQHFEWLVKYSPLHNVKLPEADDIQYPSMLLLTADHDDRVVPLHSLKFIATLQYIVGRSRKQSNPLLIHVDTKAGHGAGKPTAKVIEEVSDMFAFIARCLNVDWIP
Description: Biochemical human prolyl endopeptidase (PREP) assay with fluorescently labelled substrate. The settings on record: substrate Z-Gly-Pro-AMC 50 μM, 32° C., 60 min; some as mean values from multiple independent determinations. How it is done: B-1 Biochemical Human Prolyl Endopeptidase (PREP) Assay for Identification of Inhibitors of PREP Activity Using a Fluorescently Labelled Substrate Principle of the Assay:
The enzymatic conversion of the fluorescent peptide substrate was observed on the basis of the measurement of the fluorescence intensity. The enzyme activity was determined by the ascertaining of the initial slope in the increase in fluorescence. Compounds that inhibit PREP were identified on the basis of the decrease in the initial slope compared to a reaction mixture without test compound.
Determination of Activity:
IC50 values were determined by the plotting of the percentage PREP activity against the concentration of the test substance by interpolation.
To recombinant full-length human prolyl endopeptidase (PREP, R&D-Systems, 4308-SE; final concentration, for example, 0.4 nM, volume: 25 μl) in reaction buffer (50 mM Tris-HCl, pH 7.5; 150 mM NaCl; 0.13% BSA, 5 mM EDTA, 3 mM GSH, 0.005% Brij-35) was added a test compound (in DMSO, in an appropriate final concentration range from 1 nM to 30 μM, volume: 1 μl) in a well of a 384-well microtitre plate. The reaction was initiated by adding the substrate Z-Gly-Pro-AMC (final concentration 50 μM; Z=carboxybenzyl; AMC=7-amino-4-methylcoumarin, volume: 25 μl). The progress of the PREP reaction was observed by measuring the fluorescence intensity in a Tecan SAFIRE II plate spectrophotometer at 32° C. over a period of 60 min (excitation wavelength: 360 nm, emission wavelength: 465 nm).
Table B-1 below collates the IC50 values thus obtained from the human prolyl endopeptidase assay for individual working examples of the invention (some as mean values from multiple independent individual determinations).
Regarding `O=C(C1CCCc2nn(Cc3ccc(C(F)(F)F)nc3)c(=O)n21)N1CC(F)C1` (racemic) [Example 96, (5RS)-5-[(3-Fluoroazetidin-1-yl)carbonyl]-2-{[6-(trifluoromethyl)pyridin-3-yl]methyl}-5,6,7,8-tetrahydro[1,2,4]triazolo[4,3-a]pyridin-3(2H)-one], the IC50 turned out to be 7.4 nM.

As to `CC1CCC(C(=O)N2CC(F)C2)n2c1nn(Cc1ccc(C(F)(F)F)nc1)c2=O` (racemic) [Example 328, (5RS,8RS)-5-[(3-Fluoroazetidin-1-yl)carbonyl]-8-methyl-2-{[6-(trifluoromethyl)pyridin-3-yl]methyl}-5,6,7,8-tetrahydro[1,2,4]triazolo[4,3-a]pyridin-3(2H)-one], the half-maximal inhibitory concentration (IC50) is 4.1 nM.

For the compound `CC1CCC(C(=O)N2CC(F)C2)n2c1nn(Cc1ccc(F)cc1F)c2=O` (racemic) [Example 329, (5RS,8RS)-2-(2,4-Difluorobenzyl)-5-[(3-fluoroazetidin-1-yl)carbonyl]-8-methyl-5,6,7,8-tetrahydro[1,2,4]triazolo[4,3-a]pyridin-3(2H)-one], the IC50 was 4.3 nM.

For the compound `O=C(C1C(C(F)(F)F)CCc2nn(Cc3ccc(Cl)cn3)c(=O)n21)N1CC[C@H](F)C1` (mixture of isomers) [Example 298, (5RS,6RS)-2-[(5-Chloropyridin-2-yl)methyl]-5-{[(3S)-3-fluoropyrrolidin-1-yl]carbonyl}-6-(trifluoromethyl)-5,6,7,8-tetrahydro[1,2,4]triazolo[4,3-a]pyridin-3(2H)-one], the half-inhibitory concentration (IC50) came to 24 nM.

For the compound `O=C([C@@H]1CCCc2nn(Cc3ncc(Cl)cc3Cl)c(=O)n21)N1CC(F)(F)C1` [Example 397, (5S)-2-[(3,5-Dichloropyridin-2-yl)methyl]-5-[(3,3-difluoroazetidin-1-yl)carbonyl]-5,6,7,8-tetrahydro[1,2,4]triazolo[4,3-a]pyridin-3(2H)-one], the IC50 came to 6.9 nM.

As to `O=C([C@@H]1CCCc2nn(Cc3ccc(F)cc3Cl)c(=O)n21)N1CC[C@H](F)C1` [Example 475, (5S)-2-(2-Chloro-4-fluorobenzyl)-5-{[(3S)-3-fluoropyrrolidin-1-yl]carbonyl}-5,6,7,8-tetrahydro[1,2,4]triazolo[4,3-a]pyridin-3(2H)-one], the IC50 came out at 0.33 nM.

For the compound `COc1ccc(Cn2nc3n(c2=O)[C@H](C(=O)N2CC(F)C2)CCC3)nc1` [Example 382, (5S)-5-[(3-Fluoroazetidin-1-yl)carbonyl]-2-[(5-methoxypyridin-2-yl)methyl]-5,6,7,8-tetrahydro[1,2,4]triazolo[4,3-a]pyridin-3(2H)-one], the IC50 was found to be 5.9 nM.

On to `Cc1ccc(Cn2nc3n(c2=O)[C@H](C(=O)N2CC(C)C2)CCC3)cc1` [Example 192, (5S)-5-[(3-Methylazetidin-1-yl)carbonyl]-2-(4-methylbenzyl)-5,6,7,8-tetrahydro[1,2,4]triazolo[4,3-a]pyridin-3(2H)-one], for which the IC50 was determined as 0.32 nM.

Take `O=C([C@@H]1CCCc2nn(Cc3cccc(C(F)(F)F)c3)c(=O)n21)N1C[C@@H](F)[C@@H](F)C1` [Example 445, (5S)-5-{[(3R,4S)-3,4-Difluoropyrrolidin-1-yl]carbonyl}-2-[3-(trifluoromethyl)benzyl]-5,6,7,8-tetrahydro[1,2,4]triazolo[4,3-a]pyridin-3(2H)-one]: the IC50 worked out at 0.76 nM.

Consider `Cc1ccc(Cn2nc3n(c2=O)[C@H](C(=O)N2CC(F)(F)C(F)(F)C2)CCC3)cc1` [Example 145, (5S)-2-(4-Methylbenzyl)-5-[(3,3,4,4-tetrafluoropyrrolidin-1-yl)carbonyl]-5,6,7,8-tetrahydro[1,2,4]triazolo[4,3-a]pyridin-3(2H)-one], for which the IC50 worked out at 12.7 nM.

Turning to `O=C([C@@H]1CCCc2nn(Cc3ncc(Cl)cc3F)c(=O)n21)N1CC(F)C1` [Example 407, (5S)-2-[(5-Chloro-3-fluoropyridin-2-yl)methyl]-5-[(3-fluoroazetidin-1-yl)carbonyl]-5,6,7,8-tetrahydro[1,2,4]triazolo[4,3-a]pyridin-3(2H)-one], the concentration for half-maximal inhibition (IC50) is 1.35 nM.

In the case of `O=C(C1CCc2nn(Cc3ccc(C(F)(F)F)nc3)c(=O)n21)N1CCC(F)(F)C1` (racemic) [Example 167, (5RS)-5-[(3,3-Difluoropyrrolidin-1-yl)carbonyl]-2-{[6-(trifluoromethyl)pyridin-3-yl]methyl}-2,5,6,7-tetrahydro-3H-pyrrolo[2,1-c][1,2,4]triazol-3-one], the 50% inhibitory concentration (IC50) is 56.5 nM.

For `Cc1ccc(Cn2nc3n(c2=O)[C@H](C(=O)N2CC[S+]([O-])C2)CCC3)cc1` (single isomer, unassigned) [Example 194], the IC50 is 0.375 nM.

With `O=C([C@@H]1CCCc2nn(Cc3cncc(C(F)(F)F)c3)c(=O)n21)N1CCCC1` [Example 535, (5S)-5-(Pyrrolidin-1-ylcarbonyl)-2-{[5-(trifluoromethyl)pyridin-3-yl]methyl}-5,6,7,8-tetrahydro[1,2,4]triazolo[4,3-a]pyridin-3(2H)-one], the IC50 is 5.1 nM.

Consider `O=C(C1CC(C(F)(F)F)Cc2nn(Cc3ncc(C(F)(F)F)cc3Cl)c(=O)n21)N1CC[C@H](F)C1` (mixture of isomers) [Example 562, (5RS,7RS)-2-{[3-Chloro-5-(trifluoromethyl)pyridin-2-yl]methyl}-5-{[(3S)-3-fluoropyrrolidin-1-yl]carbonyl}-7-(trifluoromethyl)-5,6,7,8-tetrahydro[1,2,4]triazolo[4,3-a]pyridin-3(2H)-one], for which the half-inhibitory concentration (IC50) was found to be 1.33 nM.

For the compound `O=C([C@@H]1CCCc2nn(Cc3cccc(C(F)(F)F)c3)c(=O)n21)N1CC[C@H](O)C1` [Example 99, (5S)-5-{[(3S)-3-Hydroxypyrrolidin-1-yl]carbonyl}-2-[3-(trifluoromethyl)benzyl]-5,6,7,8-tetrahydro[1,2,4]triazolo[4,3-a]pyridin-3(2H)-one], the half-maximal inhibitory concentration (IC50) came out at 12.7 nM.

`O=C([C@@H]1CCCc2nn(Cc3ccc(Cl)cn3)c(=O)n21)N1C[C@@H](F)[C@@H](F)C1` [Example 378, (5S)-2-[(5-Chloropyridin-2-yl)methyl]-5-{[(3R,4S)-3,4-difluoropyrrolidin-1-yl]carbonyl}-5,6,7,8-tetrahydro[1,2,4]triazolo[4,3-a]pyridin-3(2H)-one]: the IC50 was found to be 2.6 nM.

Take `CC(c1ccc(C(F)(F)F)nc1)n1nc2n(c1=O)[C@H](C(=O)N1C[C@@H](F)[C@@H](F)C1)CCC2` (single isomer, unassigned) [Example 218]: the IC50 is 3.3 nM.

Regarding `O=C(C1C(C(F)(F)F)CCc2nn(Cc3ncc(Cl)cc3Cl)c(=O)n21)N1C[C@@H](F)[C@@H](F)C1` (mixture of isomers) [Example 287, (5RS,6RS)-2-[(3,5-Dichloropyridin-2-yl)methyl]-5-{[(3R,4S)-3,4-difluoropyrrolidin-1-yl]carbonyl}-6-(trifluoromethyl)-5,6,7,8-tetrahydro[1,2,4]triazolo[4,3-a]pyridin-3(2H)-one], the half-inhibitory concentration (IC50) worked out at 23 nM.

Consider `O=C(C1CC(C(F)(F)F)Cc2nn(Cc3cncc(Cl)c3)c(=O)n21)N1CC[C@H](F)C1` (mixture of isomers) [Example 316, (5RS,7RS)-2-[(5-Chloropyridin-3-yl)methyl]-5-{[(3S)-3-fluoropyrrolidin-1-yl]carbonyl}-7-(trifluoromethyl)-5,6,7,8-tetrahydro[1,2,4]triazolo[4,3-a]pyridin-3(2H)-one], for which the IC50 is 2.6 nM.

In the case of `COc1ccc(C2(Cn3nc4n(c3=O)[C@H](C(=O)N3CCC(F)(F)C3)CCC4)CC2)cc1` [Example 529, (5S)-5-[(3,3-Difluoropyrrolidin-1-yl)carbonyl]-2-{[1-(4-methoxyphenyl)cyclopropyl]methyl}-5,6,7,8-tetrahydro[1,2,4]triazolo[4,3-a]pyridin-3(2H)-one], the half-inhibitory concentration (IC50) was determined as 0.96 nM.

As to `CC(C)(C)OC(=O)c1ccc(Cn2nc3n(c2=O)C(C(=O)N2CCCC2)CCC3)cc1` (racemic) [Example 28, tert-Butyl 4-{[(5RS)-3-oxo-5-(pyrrolidin-1-ylcarbonyl)-5,6,7,8-tetrahydro[1,2,4]triazolo[4,3-a]pyridin-2(3H)-yl]methyl}benzoate], the IC50 was 24 nM.

The values above are taken from patent US10722501B2 (BAYER AKTIENGESELLSCHAFT, priority 2016, dated 2020).
